Where two headings read alike, the source gives them in different places.
What was measured:
c-Myc protein = biological target: T1, c-Myc protein (Homo sapiens, UniProt P01106); assay: Ability of compounds to degrade c-Myc protein in HL60 cells (ELISA); type: cell-based; settings: HL-60, 1 μM compound, 24 h, read-out: HL60 cells Protein degradation rate (1 μM)
T1 construct: endogenous in cells; host or cells: HL60 cells
Experimental: I Activity test 1: Ability of compounds to degrade c-Myc protein in HL60 cells:
HL60 cells in the exponential growth phase were centrifuged, diluted with fresh culture mediums to 6×10^4 cells/100 μL and plated into a 96-well plate at 100 μL per well.
Preparation of test compounds: the compounds were weighed and diluted with DMSO to a 10 mM stock solution for later use. According to test requirements, drugs were diluted with cell culture mediums, with ten-fold dilutions starting from 10 μM, to achieve 3 concentration gradients: 10 μM, 1 μM and 100 NM; and finally, 1 μL of the drugs (DMSO content: 0.01%) were added to each well. For the blank control group, DMSO was also diluted with cell culture mediums, and finally, 1 μL of the control reagent (DMSO content: 0.01%) was added to each well.
3. Effect of drugs on c-Myc in cells as determined by ELISA
After 24 h of drug action, the culture mediums were removed, and the cells were washed once with ice-cold 1× PBS. PBS was removed, and 100 μL of ice-cold 1× Cell Lysis Buffer plus 1 mM phenylmethylsulfonyl fluoride (PMSF) was added to each well. The plate was incubated on ice for 20 min and centrifuged at 4000 RPM at 4° C. for 10 min for later use.
4. Reagent and antibody preparation in ELISA kit 1× wash buffer • 1). 16 mL of ELISA wash buffer concentrate (25×) was diluted with 384 mL of deionized water or distilled water, labeled as 1× Wash Buffer. • 2). The concentrate and 1× Wash Buffer were stored in the refrigerator. The diluted buffer was used within 14 days.
The cell extraction buffer contains 10 mM Tris (pH 7.4), 100 mM NaCl, 1 mM EDTA, 1 mM EGTA, 1 mM NaF, 20 mM Na4P2O7 2 mM Na3VO4. 1% Triton™ ×-100, 10% glycerol, 0.1% SDS and 0.5% deoxycholate. Immediately before use, PMSF (0.3 M stock solution in DMSO) was added to the buffer to a final concentration of 1 mM.
Standard curve configuration: The standard liquid was diluted using glass or plastic tubes. • 1). Huc-Myc (total) standard liquid (Invitrogen, KH02041) was reconstituted with a standard dilution to 1000 pg/mL. Refer to the standard vial label for instructions. The contents were gently swirled or mixed and then allowed to stand for 10 minutes to ensure complete reconstitution, labeled as 1,000 pg/mL human c-Myc. The standard liquid was used within 1 hour after reconstitution. • 2). 250 μL of standard dilution buffers were added to 7 test tubes respectively labeled 500, 250, 125, 62.5, 31.25, 15,63 and 0 pg/mL. • 3). 250 μL of the 1000 pg/ml standard stock solution was added to the first EP tube to a concentration of 500 pg/mL, vortexed and mixed evenly. 250 μL of the resulting mixture was further pipetted and added to the second EP tube to a concentration of 250 pg/mL. Serial dilutions were performed until the sixth EP tube with a concentration of 15.63 pg/mL. Dilution was not performed on the last EP tube. • 4). The remaining reconstituted standard liquid should be discarded, or aliquoted and frozen at −80° C. for further use. Standards can be frozen and thawed only once without losing immunoreactivity.
1× anti-rabbit IgG HRP solution: 1× anti-rabbit IgG HRP solution was prepared within 15 minutes of use. The anti-rabbit IgG HRP (100×) contained 50% viscous glycerol. To ensure accurate dilutions, the following operations were carried out: 1 For each 8-well test strip used in the test, 10 μl, of the anti-rabbit IgG -IRP (100×) solution was pipetted, wherein the pipette tip was wiped with clean absorbent paper to remove excess solutions, and then the solution was dispensed into a test tube containing 1 mL of HRP diluent and mixed thoroughly. 2. The unused anti-rabbit IgG HRP (100×) was placed in the refrigerator for storage.
50 μL of the standard liquid was added to the appropriate wells and not added to the blank control well. Except for the blank control well, 50 μL of Hu c-Myc (total) detection antibody solution was added to each well and mixed by tapping the side face of the plate. […]

HL60 cells = assay: Anti-proliferation ability of compounds on HL60 cells (CTG); type: cell-based, human; settings: 3 days, CellTiter-Glo, read-out: HL60 cells Proliferation inhibitory activity
Experimental: II. Activity test 2: Anti-proliferation ability of compounds on HL60 cells: 1 Cell plating
HL60 cells in the logarithmic growth phase were counted and plated evenly in a 96-well transparent bottom white plate at 20000 cells per well and 100 μL per well.
A certain amount of the compounds was weighed and diluted with DMSO to a 10 mM stock solution. The culture mediums corresponding to the cells were taken, and the drugs were diluted to the concentration required by the test, shaken gently and mixed evenly. 50 μl of the gradient dilution of the diluted compound was added to each well of the plated cells, and 50 μL of 0.1% DMSO was added to the control group. The plate was shaken gently, mixed evenly and incubated in a cell culture incubator for 3 days.
• 3.1 The CellTiter-GLo™ (CTG) reagent was taken in advance from the −20° C. refrigerator and equilibrated to room temperature in the dark (white bottle+brown bottle, 1:1 mixing evenly into the brown bottle, for later use). • 3.2 The 96-well plate was taken out and inspected under a microscope for growth situation. • 3.3 The bottom of the 96-well plate was tagged with white paper, and then the plate was wrapped with tin foil paper, shaken at 37° C. at 300 r for 10 min and mixed evenly. • 3.4 50 ul of CTG detection reagent was added to each well, Luminescence signal was detected using a microplate reader, and the inhibition rate was calculated. IC50 values of the compounds were calculated by XLfit software to evaluate the proliferation inhibitory activity on HL60 cells.

T1 sequence (P01106 whole entry): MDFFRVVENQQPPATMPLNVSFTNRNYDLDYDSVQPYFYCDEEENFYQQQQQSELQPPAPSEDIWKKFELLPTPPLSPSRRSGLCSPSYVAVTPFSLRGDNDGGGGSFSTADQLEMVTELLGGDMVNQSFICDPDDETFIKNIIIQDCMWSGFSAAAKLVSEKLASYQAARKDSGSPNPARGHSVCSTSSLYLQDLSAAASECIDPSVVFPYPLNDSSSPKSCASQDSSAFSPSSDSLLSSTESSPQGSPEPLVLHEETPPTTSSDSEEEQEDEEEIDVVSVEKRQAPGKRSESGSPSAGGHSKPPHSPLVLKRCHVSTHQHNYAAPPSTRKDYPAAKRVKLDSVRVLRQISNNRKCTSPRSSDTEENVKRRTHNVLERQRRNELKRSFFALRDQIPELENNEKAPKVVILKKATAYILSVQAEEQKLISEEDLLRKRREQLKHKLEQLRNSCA

SMILES | inhibition at 1 µM (c-Myc protein) [%] | IC50 (HL60 cells; Homo sapiens, HL-60, 72 h) [nM] | IC50 (HL60 cells) [nM]
O=C(Cn1c2ccccc2c2ccccc21)NCCCCCCNC(=O)c1ccc2c(c1)C(=O)N(C1CCC(=O)NC1=O)C2=O (centres unmarked) [A1] | 30 to 60 | 335 ± 83.1 | –
O=C(Cn1c2ccccc2c2cccnc21)NCCCCCCNC(=O)c1ccc2c(c1)C(=O)N(C1CCC(=O)NC1=O)C2=O (centres unmarked) [A2] | 30 to 60 | 50.7 ± 11.4 | –
O=C(Cn1c2ccccc2c2ccncc21)NCCCCCCNC(=O)c1ccc2c(c1)C(=O)N(C1CCC(=O)NC1=O)C2=O (centres unmarked) [A3] | 30 to 60 | – | –
O=C(Cn1c2ncccc2c2cccnc21)NCCCCCCNC(=O)c1ccc2c(c1)C(=O)N(C1CCC(=O)NC1=O)C2=O (centres unmarked) [A4] | 10 to 30 | 221 ± 54.5 | –
O=C(CN(c1ccccc1)c1ccccc1)NCCCCCCNC(=O)c1ccc2c(c1)C(=O)N(C1CCC(=O)NC1=O)C2=O (centres unmarked) [A5] | 30 to 60 | 391 ± 4.7 | –
O=C(CN1c2ccccc2Oc2ccccc21)NCCCCCCNC(=O)c1ccc2c(c1)C(=O)N(C1CCC(=O)NC1=O)C2=O (centres unmarked) [A7] | 30 to 60 | 320 ± 38 | –
O=C(Cc1cccc2ccccc12)NCCCCCCNC(=O)c1ccc2c(c1)C(=O)N(C1CCC(=O)NC1=O)C2=O (centres unmarked) [A8] | 30 to 60 | 69.8 ± 8.8 | –
O=C(Cc1ccc2ccccc2c1)NCCCCCCNC(=O)c1ccc2c(c1)C(=O)N(C1CCC(=O)NC1=O)C2=O (centres unmarked) [A9] | 30 to 60 | 570 ± 38 | –
O=C1CCC(N2C(=O)c3ccc(C(=O)NCCCCCCNC(=O)NC4c5ccccc5-c5ccccc54)cc3C2=O)C(=O)N1 (centres unmarked) [A10] | 10 to 30 | 1213 ± 4 | –
O=C(CC1c2ccccc2-c2ccccc21)NCCCCCCNC(=O)c1ccc2c(c1)C(=O)N(C1CCC(=O)NC1=O)C2=O (centres unmarked) [A11] | 10 to 30 | 1240 ± 490 | –
O=C1CCC(N2C(=O)c3ccc(C(=O)NCCCCCCNC(=O)n4c5ccccc5c5ccccc54)cc3C2=O)C(=O)N1 (centres unmarked) [A12] | 30 to 60 | 1060 ± 62 | –
O=C(CCn1c2ccccc2c2ccccc21)NCCCCCCNC(=O)c1ccc2c(c1)C(=O)N(C1CCC(=O)NC1=O)C2=O (centres unmarked) [A13] | 10 to 30 | 1270 ± 51 | –
O=C(Cn1c2ccccc2c2ccccc21)NCCCCCCCCNC(=O)c1ccc2c(c1)C(=O)N(C1CCC(=O)NC1=O)C2=O (centres unmarked) [A14] | 30 to 60 | 226 ± 72 | –
O=C1CCC(N2Cc3cc(C(=O)NC[C@H]4CC[C@H](NC(=O)NCc5cccc6ccccc56)CC4)ccc3C2=O)C(=O)N1 (some centres unmarked) [A198] | – | 17.8 ± 1.9 | –
O=C(CN1CCCc2cccnc21)NCc1ccc(CNC(=O)c2ccc3c(c2)CN(C2CCC(=O)NC2=O)C3=O)cc1 (centres unmarked) [A202] | – | 6.4 ± 2.7 | –
CN(CCn1c2ccccc2c2cccnc21)Cc1ccc(CC(=O)Nc2ccc3c(c2)CN(C2CCC(=O)NC2=O)C3=O)cc1 (centres unmarked) [A206] | – | 0.5 ± 0.2 | –
O=C(Cn1c2ccccc2c2cccnc21)NCc1ccc(CNC(=O)c2ccc3c(c2)CN(C2CCC(=O)NC2=O)C3=O)c(OC(F)(F)F)c1 (centres unmarked) [A207] | – | 0.2 | –
O=C(Cn1c2ccccc2c2cccnc21)NCc1ccc(CNC(=O)c2ccc3c(c2)CN(C2CCC(=O)NC2=O)C3=O)c(C(F)(F)F)c1 (centres unmarked) [A209] | – | – | 0.9
N#Cc1cc(CNC(=O)Cn2c3ccccc3c3cccnc32)ccc1CNC(=O)c1ccc2c(c1)CN(C1CCC(=O)NC1=O)C2=O (centres unmarked) [A210] | – | 3.6 ± 1.8 | –

SMILES | inhibition at 1 µM (c-Myc protein) [%] | IC50 (HL60 cells; Homo sapiens, HL-60, 72 h) [nM] | IC50 (HL60 cells) [nM]
N#Cc1cc(CNC(=O)Cn2c3ccccc3c3cccnc32)ccc1CC(=O)Nc1ccc2c(c1)CN(C1CCC(=O)NC1=O)C2=O (centres unmarked) [A211] | – | 13.3 ± 1 | –
O=C1CCC(N2Cc3cc(C(=O)NCc4ccc(C5(NC(=O)Cn6c7ccccc7c7cccnc76)CC5)cc4)ccc3C2=O)C(=O)N1 (centres unmarked) [A212] | – | 1.5 ± 0.1 | –
O=C(Cn1c2ccccc2c2cccnc21)NCc1ccc(C2(NC(=O)c3ccc4c(c3)CN(C3CCC(=O)NC3=O)C4=O)CC2)cc1 (centres unmarked) [A213] | – | 5.4 ± 1.9 | –
O=C1CCC(N2Cc3cc(C(=O)NCc4ccc(C5(NC(=O)Cn6c7ccccc7c7cccnc76)CC5)cn4)ccc3C2=O)C(=O)N1 (centres unmarked) [A214] | – | 5.2 ± 1.4 | –
O=C(Cn1c2ccccc2c2cccnc21)NCc1ccc(C2(NC(=O)c3ccc4c(c3)CN(C3CCC(=O)NC3=O)C4=O)CC2)cn1 (centres unmarked) [A215] | – | 186 ± 67 | –
O=C(Cn1c2ccccc2c2cccnc21)NCc1ccc(C2(NC(=O)c3ccc4c(c3)CN(C3CCC(=O)NC3=O)C4=O)CC2)cc1F (centres unmarked) [A216] | – | 3.5 ± 1.1 | –
Cc1cc(CNC(=O)Cn2c3ccccc3c3cccnc32)ccc1CNC(=O)c1ccc2c(c1)CN(C1CCC(=O)NC1=O)C2=O (centres unmarked) [A217] | – | 0.6 | –
O=C(Cn1c2ccccc2c2cccnc21)NCc1ccc(CC(=O)Nc2ccc3c(c2F)CN(C2CCC(=O)NC2=O)C3=O)c(C(F)(F)F)c1 (centres unmarked) [A218] | – | 3.3 ± 0.8 | –
O=C(Cn1c2ccccc2c2cccnc21)NCc1ccc(CC(=O)Nc2cc3c(cc2F)C(=O)N(C2CCC(=O)NC2=O)C3)c(C(F)(F)F)c1 (centres unmarked) [A219] | – | 7.8 ± 2 | –
O=C(Cn1c2ccccc2c2cccnc21)NCc1ccc(CNC(=O)c2cc3c(cc2F)C(=O)N(C2CCC(=O)NC2=O)C3)cc1 (centres unmarked) [A222] | – | 0.6 ± 0.2 | –
O=C(Cn1c2ccccc2c2cccnc21)NCc1ccc(CNC(=O)c2ccc3c(c2F)CN(C2CCC(=O)NC2=O)C3=O)cc1 (centres unmarked) [A223] | – | 0.7 ± 0.4 | –
CC(C)(C)C(=O)OCN1C(=O)CCC(N2Cc3cc(C(=O)NCc4ccc(CNC(=O)Cn5c6ccccc6c6cccnc65)cc4)ccc3C2=O)C1=O (centres unmarked) [A226] | – | 1 | –
N#Cc1cccc2c3ccccc3n(CC(=O)NCc3ccc(CNC(=O)c4ccc5c(c4)CN(C4CCC(=O)NC4=O)C5=O)cc3)c12 (centres unmarked) [A229] | – | < 3.04 | –
O=C1CCC(N2Cc3cc(C(=O)NCc4ccc(CN(CCc5cccc6ccccc56)CCc5cccc6ccccc56)cc4)ccc3C2=O)C(=O)N1 (centres unmarked) [A230] | – | 11.8 ± 1.2 | –
O=C1CCC(N2Cc3cc(C(=O)NCc4ccc(CNCCc5cccc6ccccc56)cc4)ccc3C2=O)C(=O)N1 (centres unmarked) [A231] | – | < 3.04 | –
O=C1CCC(N2Cc3cc(C(=O)NCc4ccc(CN(CCc5cccc6ccccc56)C(=O)CO)cc4)ccc3C2=O)C(=O)N1 (centres unmarked) [A232] | – | 0.54 | –
O=C1CCC(N2Cc3cc(C(=O)NCc4ccc(CN(CCO)CCc5ccc(Cl)c(Cl)c5)cc4)ccc3C2=O)C(=O)N1 (centres unmarked) [A233] | – | < 3.04 | –
O=C1CCC(N2Cc3cc(C(=O)NCc4ccc(CN(CCO)CCc5cccc6ccccc56)cc4)ccc3C2=O)C(=O)N1 (centres unmarked) [A234] | – | 0.71 ± 0.04 | –
O=C(Cn1c2ccccc2c2cccc(CO)c21)NCc1ccc(CNC(=O)c2ccc3c(c2)C(=O)N(C2CCC(=O)NC2=O)C3=O)cc1 (centres unmarked) [A236] | – | 6.3 ± 1.2 | –
